Laboratory results taken from patent US10781183B2, “Small molecule inducers of reactive oxygen species and inhibitors of mitochondrial activity” (The Regents of the University of Michigan, priority 2016, dated 2020).
Read-outs that look alike come from different tables or passages of the source.

Legend:
MiaPaCa-2 cells [1] = test: MTT cytotoxicity assay, MiaPaCa-2; assay type: cell-based; settings: for IC50: Homo sapiens, Mean ± SD, three independent experiments
Experimental: (§1) MiaPaCa-2, Panc-1 and BxPC-3 pancreatic cancer cell lines were obtained from the ATCC. Normal pancreatic cells HPDE and HPNE were kindly provided (Translational Oncology Program, University of […], Ann Arbor, Mich.). Gemcitabine resistant cell line MiaPaCa-2-GR (gemcitabine resistant) was kindly provided (Department of Pathology, Wayne State University, Detroit, Mich.). All cell lines were cultured as monolayer and maintained in RPMI1640 supplemented with 10% fetal bovine serum (FBS) in a humidified atmosphere with 5% CO2 at 37° C. MiaPaCa-2-GR culture was supplemented with 200 nM gemcitabine.
(§2) Cytotoxicity of compounds was evaluated with 3-(4,5-dimethylthiazol-2-yl)-2,5-diphenyltetrazolium bromide (MTT) assay. Cells were placed in 96-well plate at 3000-8000 cells/well. After overnight attachment, compounds were added to the wells at sequential dilutions (30 nM-10 μM for most cell lines). After 72 h treatment, MTT was added into the media to a final concentration of 300 μg/mL. Cells were incubated for 3 h at 37° C., and the insoluble formazan converted by viable cells were dissolved in 150 μL of DMSO. Absorbance at 570 nm was read by microplate reader (Molecular devices, Sunnyvale, Calif.), and inhibition of cell proliferation was calculated using the following formula: Inhibition of cell proliferation (%)=(1−ODtreatment/ODcontrol)×100%

Panc-1 cells = test: MTT cytotoxicity assay, Panc-1; assay type: cell-based; settings: three independent experiments
Experimental: as §1, §2

BxPC-3 cells = test: MTT cytotoxicity assay, BxPC-3; assay type: cell-based; settings: Homo sapiens, three independent experiments
Experimental: as §1, §2

MiaPaCa-2 cells [2] = test: ROS detection assay (H2DCFDA probe); assay type: cell-based
Experimental: To quantify ROS induction by redox modulators, a high throughput ROS assay in 384-well plates using H2DCFDA as the ROS detection probe was developed (FIG. 1A).
Cells were detached by 0.05% trypsin-EDTA, neutralized, centrifuged (1200 rpm, 5 min) and resuspended in cell culture media. Suspension were then treated with 20 μM cell permeable H2DCFDA for 30 min at 37° C. Cells were then centrifuged (1200 rpm, 5 min) and washed with cell culture media to remove excess probe. After washing, cells were placed in black-wall 384-well plate at 20,000 cells/well, incubated for 30 min and treated by compounds at designated conditions. Fluorescent signal were then read at 493 nm/523 nm on BioTek H1 plate reader for ROS detection.

[3] = system: mtDNA content in MiaPaCa-2 cells; test: Measurement of mtDNA content by qPCR; assay type: cell-based; settings: MiaPaCa-2 (FIG. 11C)
Experimental: To assess mtDNA content, genomic DNA was isolated with QIAamp® DNA mini kit (Qiagen, Germantown, Md.) from MiaPaCa-2 cells. The mtDNA content was evaluated by co-amplifying a DNA fragment encoding mitochondrial 12S rRNA (forward primer: 5′-[…]-3′; reverse primer: 5′-TGCGCTTACTTTGTAG CCTTCAT-3′) and a DNA fragment encoding the nuclear 18S rRNA (forward primer: 5′-CCCTGCC CTTTGTACACACC-3′; reverse primer: 5′-GATCCGAGGGCCTCACTA-3′). (Vadrot et al., 2012) Real-time qPCR was performed on Viia7 cycler (Applied Biosystems). Amplifications were monitored and analyzed by measuring the intercalation of the fluorescent dye from Fast SYBR® Green Master Mix (Applied Biosystems). Relative mtDNA contents were calculated using 18S rRNA as gene reference.

MiaPaCa-2 xenograft = MiaPaCa-2 xenograft studies; assay type: in vivo, NOD/SCID mice
Experimental: MiaPaCa-2 cells (2.0×10^6) in a 100 μL suspension of RPMI1640 was injected subcutaneously into dorsal flank of 6-week NOD/SCID mice. Tumor size was monitored twice a week through caliper measurement using the following equation: V=d^2×D/2, where d represents width and D represents length of the tumor. In study 1, mice were randomly grouped (n=5 per group) when average tumor size reached 65 mm^3. Daily treatment was given at five days on two days off cycles. QD325 was given at 5 mg/kg in 100 μL vehicle (5% DMSO, 60% Propylene glycol, 35% Saline) by intraperitoneal injection. […] Unpaired t test was performed for data analysis and p<0.05 was considered significant. […] Procedures for study 2 with gemcitabine treatment are detailed in supplemental information.
On necropsy, tumors, hearts, kidneys, livers, lungs, spleens and pancreases were collected, fixed in 10% neutral buffered formalin, embedded in paraffin, and sectioned. Sections ([…]) were stained with hematoxylin and eosin to facilitate histologic examination. For Ki67 expression level, immunohistochemistry staining was performed on sections with Ki67 antibody. Embedding, sectioning and staining of samples were performed by ULAM pathology core for animal research at the University of Michigan. Representative images were taken on Olympus IX83 microscope with 20× magnification.

Compound: O=C1C(Nc2ccc(-c3ccccc3)cc2)=CC(=O)c2ncncc21 [QD325, 6-([1,1′-biphenyl]-4-ylamino)quinazoline-5,8-dione]
- IC50 (MiaPaCa-2 cells [1]; MIA PaCa-2, 72 h, Table 1, MTT assay, 72 h): < 1000 nM
- IC50 (MiaPaCa-2 cells [1]; MIA PaCa-2, Table 2, MTT assay, read-out: IC 50 MiaPaCa-2): 900 ± 200 nM
- improvement in cytotoxicity compared with QD232 (MiaPaCa-2 cells [1]; MTT assay in PDAC cell lines MiaPaCa-2, Panc-1 and BxPC-3): more than two fold improvement in cytotoxicity
- cytotoxicity in presence of NAC (MiaPaCa-2 cells [1]; MTT assay, 72 h, NAC 5 mM (FIG. 3C)): decreased cytotoxicity
- IC50 (Panc-1 cells; Homo sapiens, PANC-1, Table 2, Mean ± SD, read-out: IC 50 Panc-1): 400 ± 100 nM
- IC50 (Panc-1 cells; Table 1, 72 h, Mean ± SD): < 1000 nM
- IC50 (BxPC-3 cells; BXPC-3, 72 h, Table 1, 72 h, Mean ± SD): < 1000 nM
- IC50 (BxPC-3 cells; BXPC-3, Table 2, Mean ± SD, read-out: IC 50 BxPC-3): 500 ± 100 nM
- ROS induction compared with lead compound QD232 (MiaPaCa-2 cells [2]; MiaPaCa-2, 24 h treatment, 10 μM (FIG. 1C)): significantly higher ROS induction than the lead compound QD232
- accumulation of ROS (MiaPaCa-2 cells [2]; MiaPaCa-2, 10, 3.3 or 1.1 μM (FIG. 3A)): time- and dose-dependent accumulation of ROS
- ROS accumulation at 10 and 3.3 μM (MiaPaCa-2 cells [2]; MiaPaCa-2, 10 and 3.3 μM): rapid and high ROS accumulation
- ROS induction after NAC pretreatment (MiaPaCa-2 cells [2]; MiaPaCa-2, NAC 5 mM for 30 min pretreatment (FIG. 3B)): inhibited
- relative levels of mtDNA over time [3]: decreased time dependently
- average tumor size at the end of the 48-day treatment period (MiaPaCa-2 xenograft; QD325 5 mg/kg five times a week, gemcitabine 15 mg/kg once a week, control 1503±189 mm^3): 248±72 mm^3
- growth of tumors (MiaPaCa-2 xenograft; QD325 5 mg/kg i.p. five times a week, treatment period of 44 days): significantly delayed growth of tumors
- average tumor size on day 44 (MiaPaCa-2 xenograft; QD325 5 mg/kg i.p. five times a week, n=5, control 1291±168 mm^3): 308±72 mm^3
- NQO1, HO-1, CHOP and GRP78 protein levels in tumor lysates (MiaPaCa-2 xenograft; QD325 treated tumors vs vehicle controls (FIG. 12E)): significantly upregulated
- growth of tumors at higher doses (MiaPaCa-2 xenograft; after day 44, dose increased from 5 to 20 mg/kg until day 67, two mice per group): able to delay growth of the tumors
- Ki67 levels in tumor tissues (MiaPaCa-2 xenograft; immunohistochemistry of xenograft sections, QD325 5 mg/kg (FIG. 12D)): decreased Ki67 levels
